Like-named read-outs stand apart in the source and are kept apart here.
Columns and labels:
[1] = test system: MOLM-13; experiment: MTS cell proliferation assay, MOLM-13; assay type: cell-based; conditions: Homo sapiens, 96 hours
Procedure: (§1) Triplicate wells were set up for each condition.
(§2) The assays were carried out in a blinded fashion.

[2] = test system: OCI-AML3; experiment: MTS cell proliferation assay, OCI-AML3; assay type: cell-based; conditions: Homo sapiens
Procedure: as §1, §2

[3] = test system: THP1; experiment: MTS cell proliferation assay, THP1; assay type: cell-based; conditions: Homo sapiens, THP-1, 96 hours
Procedure: as §1, §2

[4] = test system: HL-60; experiment: MTS cell proliferation assay, HL-60; assay type: cell-based; conditions: Homo sapiens, 96 hours
Procedure: as §1, §2

[5] = test system: MV4-11; experiment: MTS cell proliferation assay, MV4-11; assay type: cell-based; conditions: for IC50: Homo sapiens, MV4-11, MTS
[6] = target: T1, DHODH (Homo sapiens, UniProt Q02127); experiment: DHODH enzymatic assay (DCIP reduction); assay type: biochemical; conditions: for DHODH inhibition, % inhibition: compound concentration not given; for IC50: range in parentheses, read-out: DHODH inhibition, IC50
T1 construct: made in house
Procedure: DHODH Enzymatic Assay: DHODH activity was determined at 25° C. following the reduction of 2,6-dichloroindophenol sodium salt (DCIP) at 600 nm (ε=18 800 M^−1 cm^−1) on a spectrophotometer. The reaction medium used contained 50 mM Tris-HCl, pH 8.0, 0.1% Triton X-100, 0.1 mM LDHO, 0.025 mM CoQ1, and 0.06 mM DCIP. The reaction was started by addition of the enzyme. The inhibitory potency of the compounds was evaluated by measuring the initial velocity of the reaction either in the absence or in the presence of the compounds at the indicated concentrations. The DHODH enzyme used was the recombinant human enzyme prepared as previously described (Helene Munier-Lehmann, et al., J. Med. Chem. 2015, 58:860-877).

[7] = OCI-AML-3, 96 hours, read-out: IC50 (μM) at 96 hours, OCI-AML3
[8] = 96 hours, read-out: IC50 (μM) at 96 hours, MV4-11
[9] = OCI-AML-3, 96 hour, Table 6, read-out: 96 hour IC50 (nM) in OCI-AML-3 cell line
[10] = 96 hour, Table 7, read-out: 96 hour IC50 (nM) in MV-411 cell line

T1 sequence (Q02127 whole entry): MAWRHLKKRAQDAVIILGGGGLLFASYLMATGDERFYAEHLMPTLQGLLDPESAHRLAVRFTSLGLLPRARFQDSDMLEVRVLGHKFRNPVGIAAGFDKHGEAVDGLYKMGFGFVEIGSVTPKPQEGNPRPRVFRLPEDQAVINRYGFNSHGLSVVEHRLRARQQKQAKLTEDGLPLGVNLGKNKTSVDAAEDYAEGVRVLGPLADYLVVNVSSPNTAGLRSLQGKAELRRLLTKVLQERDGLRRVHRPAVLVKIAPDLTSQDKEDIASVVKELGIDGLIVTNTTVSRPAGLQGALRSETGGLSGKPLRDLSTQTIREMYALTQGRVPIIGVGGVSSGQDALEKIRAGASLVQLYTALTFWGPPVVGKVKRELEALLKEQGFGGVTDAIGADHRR

For CC1=C(/C=C/C(C)=C/C=C/C(C)=C/C(=O)O)C(C)(C)CCC1 [ATRA, all-trans-retinoic acid, reference compound], the IC50 [1] was 3.06 µM and the IC50 [2, 7] was 0.09 µM.
Cc1c(-c2ccc(-c3ccccc3F)cc2)nc2ccc(F)cc2c1C(=O)O [BQR•Na, reference compound] was tested, and the IC50 [1] was 0.48 µM, the IC50 [3] was 1 µM and the IC50 [4] was 0.23 µM. For the same compound, the IC50 [2, 7] was 0.4 µM and the IC50 [5, 8] was 0.49 µM.
Cc1c(-c2ccc(-c3ccccc3F)cc2)nc2ccc(F)cc2c1C(=O)O [Brequinar, 6-fluoro-2-(2′-fluoro-1,1′-biphenyl-4-yl)-3-methyl-4-quinolinecarboxylic acid, reference compound] was tested, and the IC50 [2, 9] was 0.314 µM and the “rescue of cytotoxic effects by uridine” value ([5]; 0.25 or 0.5 μM compound, uridine 0 to 200 μM, 96 hours) was “rescued by growth in the presence of uridine”.
COc1ccc(-c2ccc(-c3cc(C(=O)O)c4cc(Cl)ccc4n3)cc2)cc1 [Cpd5, 6-chloro-2-(4′-methoxy-[1,1′-biphenyl]-4-yl)quinoline-4-carboxylic acid] gave an IC50 [1] of 3.02 µM, an IC50 [3] of 7.84 µM and an IC50 [4] of 20.9 µM. The “DHODH inhibition, % inhibition” value [6] was 95%, the IC50 [6] was 99 nM and the IC50 [2, 7] was 3.37 µM. For the same compound, the IC50 [5, 8] was 6.96 µM.
In the case of O=C(O)c1cc(-c2ccc(-c3ccc(F)cc3)cc2)nc2ccc(Cl)cc12 [Cpd6, 6-chloro-2-(4′-fluoro-[1,1′-biphenyl]-4-yl)quinoline-4-carboxylic acid], the IC50 [1] is reported as 6.91 µM, the IC50 [3] is reported as 10.4 µM and the IC50 [4] is reported as 3 µM. For the same compound, the “DHODH inhibition, % inhibition” value [6] was 99%, the IC50 [6] was 76 nM and the IC50 [2, 7] was 6.25 µM. For the same compound, the IC50 [5, 8] was 6.48 µM.
COc1ccc(-c2ccc(-c3cc(C(=O)O)c4cccc(F)c4n3)cc2)cc1 [Cpd8, 8-fluoro-2-(4′-methoxy-[1,1′-biphenyl]-4-yl)quinoline-4-carboxylic acid] gave an IC50 [1] of 6.76 µM, an IC50 [3] of 11.6 µM and an IC50 [4] of 3.57 µM. For the same compound, the IC50 [2, 7] was 4.99 µM and the IC50 [5, 8] was 7.54 µM.
Cc1c(-c2ccc(-c3ccc(F)cc3F)cc2)nc2c(F)cccc2c1C(=O)O [Cpd14, 2-(2′,4′-difluoro-[1,1′-biphenyl]-4-yl)-8-fluoro-3-methylquinoline-4-carboxylic acid] gave an IC50 [1] of 8.63 µM, an IC50 [3] of 21.4 µM and an IC50 [4] of 9.48 µM. The IC50 [2, 7] was 11.2 µM and the IC50 [5, 8] was 14 µM.
With CCOc1ccc(-c2ccc(-c3cc(C(=O)O)c4cccc(F)c4n3)cc2)cc1 [Cpd16, 2-(4′-ethoxy-[1,1′-biphenyl]-4-yl)-8-fluoroquinoline-4-carboxylic acid] the IC50 [1] was 3.42 µM, the IC50 [3] was 6.7 µM and the IC50 [4] was 1.69 µM. For the same compound, the IC50 [2, 7] was 2.9 µM and the IC50 [5, 8] was 6.23 µM.
O=C(O)c1cc(-c2ccc(-c3ccc(C(F)(F)F)cc3)cc2)nc2ccc(-c3ccc(F)cc3)cc12 [Cpd17, 6-(4-fluorophenyl)-2-(4′-(trifluoromethyl)-[1,1′-biphenyl]-4-yl)quinoline-4-carboxylic acid] was tested, and the “DHODH inhibition, % inhibition” value [6] was 8%.
Cc1c(-c2ccc(-c3ccc(F)cc3)cc2)nc2ccc(F)cc2c1C(=O)O [Cpd18, 6-fluoro-2-(4′-fluoro-[1,1′-biphenyl]-4-yl)-3-methylquinoline-4-carboxylic acid] gave an IC50 [1] of 6.76 µM, an IC50 [3] of 9.34 µM and an IC50 [4] of 2.4 µM. The IC50 [2, 7] was 4.01 µM and the IC50 [5, 8] was 6.86 µM.
Work on COc1ccc(-c2ccc(-c3cc(C(=O)O)c4cc(F)ccc4n3)cc2)cc1 [Cpd20, 6-fluoro-2-(4′-methoxy-[1,1′-biphenyl]-4-yl)quinoline-4-carboxylic acid] yielded an IC50 [5, 10] of 0.69 µM.
In the case of CCCOc1ccc(-c2ccc(-c3cc(C(=O)O)c4cc(F)ccc4n3)cc2)cc1 [Cpd21, 6-fluoro-2-(4′-propoxy-[1,1′-biphenyl]-4-yl)quinoline-4-carboxylic acid], the IC50 [5, 10] is reported as 0.06 µM.
CCCCOc1ccc(-c2ccc(-c3cc(C(=O)O)c4cc(F)ccc4n3)cc2)cc1 [Cpd22, 2-(4′-butoxy-[1,1′-biphenyl]-4-yl)-6-fluoroquinoline-4-carboxylic acid] showed an IC50 [2, 9] of 0.155 µM and an IC50 [5, 10] of 0.036 µM.
CCCCCCCOc1ccc(-c2ccc(-c3cc(C(=O)O)c4cc(F)ccc4n3)cc2)cc1 [Cpd23, 6-fluoro-2-(4′-(heptyloxy)-[1,1′-biphenyl]-4-yl)quinoline-4-carboxylic acid] showed an IC50 [2, 9] of 0.0906 µM and an IC50 [5, 10] of 0.018 µM.
O=C(O)c1cc(-c2ccc(-c3ccccc3F)cc2)nc2ccc(F)cc12 [Cpd24, 6-fluoro-2-(2'-fluoro-[1,1′-biphenyl]-4-yl)quinoline-4-carboxylic acid] showed an IC50 [2, 9] of 0.0495 µM.
For CC(C)Oc1ccc(-c2ccc(-c3cc(C(=O)O)c4cc(F)ccc4n3)cc2)cc1 [Cpd25, 6-fluoro-2-(4′-isopropoxy-[1,1′-biphenyl]-4-yl)quinoline-4-carboxylic acid], the IC50 [2, 9] was 0.0676 µM.
For CC(C)COc1ccc(-c2ccc(-c3cc(C(=O)O)c4cc(F)ccc4n3)cc2)cc1 [Cpd26, 6-fluoro-2-(4′-isobutoxy-[1,1′-biphenyl]-4-yl)quinoline-4-carboxylic acid], the IC50 [2, 9] was 0.0893 µM.
Compound CCOc1ccccc1-c1ccc(-c2cc(C(=O)O)c3cc(F)ccc3n2)cc1 [Cpd27, 2-(2′-ethoxy-[1,1′-biphenyl]-4-yl)-6-fluoroquinoline-4-carboxylic acid] has an IC50 [2, 9] of 0.637 µM.
CCOc1cccc(-c2ccc(-c3cc(C(=O)O)c4cc(F)ccc4n3)cc2)c1 [Cpd28, 2-(3′-ethoxy-[1,1′-biphenyl]-4-yl)-6-fluoroquinoline-4-carboxylic acid] gave an IC50 [2, 9] of 0.0209 µM.
CCCCCOc1ccc(-c2ccc(-c3cc(C(=O)O)c4cc(F)ccc4n3)cc2)cc1 [Cpd29, 6-fluoro-2-(4′-(pentyloxy)-[1,1′-biphenyl]-4-yl)quinoline-4-carboxylic acid] gave an IC50 [2, 9] of 0.0729 µM.
Compound CCCCCCOc1ccc(-c2ccc(-c3cc(C(=O)O)c4cc(F)ccc4n3)cc2)cc1 [Cpd30, 6-fluoro-2-(4′-(hexyloxy)-[1,1′-biphenyl]-4-yl)quinoline-4-carboxylic acid] has an IC50 [2, 9] of 0.0761 µM.
With CCCCCCCCOc1ccc(-c2ccc(-c3cc(C(=O)O)c4cc(F)ccc4n3)cc2)cc1 [Cpd31, 6-fluoro-2-(4′-(octyloxy)-[1,1′-biphenyl]-4-yl)quinoline-4-carboxylic acid] the IC50 [2, 9] was 0.175 µM.
Work on CC(C)(C)Oc1ccc(-c2ccc(-c3cc(C(=O)O)c4cc(F)ccc4n3)cc2)cc1 [Cpd32, 2-(4′-(tert-butoxy)-[1,1′-biphenyl]-4-yl)-6-fluoroquinoline-4-carboxylic acid] yielded an IC50 [2, 9] of 0.0503 µM.
With CC(C)CCOc1ccc(-c2ccc(-c3cc(C(=O)O)c4cc(F)ccc4n3)cc2)cc1 [Cpd33, 6-fluoro-2-(4′-(isopentyloxy)-[1,1′-biphenyl]-4-yl)quinoline-4-carboxylic acid] the IC50 [2, 9] was 0.0746 µM.
In the case of CCOc1ccc(-c2ccc(-c3cc(C(=O)O)c4cc(F)ccc4n3)cc2)c(F)c1 [Cpd35, 2-(4′-ethoxy-2′-fluoro-[1,1′-biphenyl]-4-yl)-6-fluoroquinoline-4-carboxylic acid], the IC50 [2, 9] is reported as 0.0877 µM.
CCOc1ccc(-c2ccc(-c3cc(C(=O)O)c4cc(C(F)(F)F)ccc4n3)cc2)cc1 [Cpd36, 2-(4′-ethoxy-[1,1′-biphenyl]-4-yl)-6-(trifluoromethyl)quinoline-4-carboxylic acid] gave an IC50 [2, 9] of 0.33 µM.
COCc1cccc(-c2ccc(-c3cc(C(=O)O)c4cc(F)ccc4n3)cc2)c1 [Cpd37, 6-fluoro-2-(3′-(methoxymethyl)-[1,1′-biphenyl]-4-yl)quinoline-4-carboxylic acid] showed an IC50 [2, 9] of 0.864 µM.
COCc1ccc(-c2ccc(-c3cc(C(=O)O)c4cc(F)ccc4n3)cc2)cc1 [Cpd38, 6-fluoro-2-(4′-(methoxymethyl)-[1,1′-biphenyl]-4-yl)quinoline-4-carboxylic acid] gave an IC50 [2, 9] of 1.06 µM.
COCc1ccccc1-c1ccc(-c2cc(C(=O)O)c3cc(F)ccc3n2)cc1 [Cpd39, 6-fluoro-2-(2'-(methoxymethyl)-[1,1′-biphenyl]-4-yl) quinoline-4-carboxylic acid] showed an IC50 [2, 9] of 0.0964 µM.
O=C(O)c1cc(-c2ccc(-c3ccc(Oc4ccccc4)cc3)cc2)nc2ccc(F)cc12 [Cpd40, 6-fluoro-2-(4′-phenoxy-[1,1′-biphenyl]-4-yl)quinoline-4-carboxylic acid] was tested, and the IC50 [5, 10] was 0.067 µM.

Reference: US11999697B2, “Methods and compositions for inhibition of dihydroorotate dehydrogenase” (OHIO STATE INNOVATION FOUNDATION, priority 2018, dated 2024)
